Source: patent US20110152298A1, “IMIDAZO [2,1-B] QUINAZOLIN-2-ONE DERIVATIVES AND THEIR USE AS PLATELET ANTI-AGGREGATIVE AGENTS” (SHIRE LLC, priority 2008, published 2011)

Tests used:
[1] = in vivo; cited from earlier work
[2] = system: human phosphodiesterase III (PDE III); test: PDE III inhibition; format: biochemical
Source text: In early volunteer trials, the most frequently reported adverse effects AEs other than headache were palpitations, postural dizziness and nausea. During patient studies, the most frequently reported drug-related AEs were headache, palpitations, oedema/fluid retention, nausea/vomiting, diarrhea, dizziness and abdominal pain. These effects are all likely to arise from the secondary, cardiovascular pharmacology associated with anagrelide resulting from its inhibitory effects on human phosphodiesterase III (PDE III). […] Inhibition of myocardial PDE III leads to positive inotropy (increasing of the force of contractions of the heart), increased chronotropy (increase in heart rate), and peripheral vasodilatation. Such cardiovascular manifestations of this inhibition are typically seen with the classical positive inotropes, milrinone and enoximone, and exploited in the short-term acute treatment of congestive heart failure. However, in the treatment of a so-called silent disease (i.e., asymptomatic) such as ET, the cardiovascular side-effects of palpitations and tachycardia associated with anagrelide limit its utility and a significant proportion of patients—reportedly between 25 and 50%—fail to tolerate the drug during long term treatment.

[3] = system: human megakaryocytopoiesis; settings: cited from earlier work
[4] = Pharmacokinetics of anagrelide and its metabolite; format: in vivo, human; settings: typical exposures, relative to anagrelide
Source text: The PDE III inhibitory properties of anagrelide are quite distinct from its platelet lowering anti-megakaryocytic effects. Indeed studies have shown no correlation between potency as a PDE III inhibitor and anti-megakaryocytic effects for anagrelide and its principal pharmacologically active metabolite, 3-hydroxyanagrelide (3-OH anagrelide or 3-HA, formerly known as SPD604 or BCH24426). […] Anagrelide's active metabolite, 3-HA, is present in vivo in amounts greatly exceeding those of the parent drug with typical exposures being 2-3 fold greater. Thus by implication 3-OH anagrelide is likely to be a major contributor to the pharmacological actions of the drug.
The metabolism of anagrelide generally proceeds extremely rapidly, resulting in a less than ideal pharmacokinetic profile of the drug. […] This, combined with the side-effects profile, can lead to poor patient compliance. Furthermore, anagrelide undergoes a large first pass effect (>50%) leading to considerable intersubject variation in achieved exposures and, therefore, potentially variable drug response. Also, exposure to the pharmacologically active metabolite varies dramatically between patients since its formation is dependent on CYP1A, an enzyme whose expression is highly dependent on exposure to inducing agents such as cigarette smoke. […]

[5] = molecular target: human phosphodiesterase III (PDE III); settings: cited from earlier work
[6] = system: platelet count; settings: patients with thrombocythemia secondary to a myeloproliferative disorder; cited from earlier work
[7] = system: erythroid or myelomonocytic differentiation; settings: stimulated by erythropoietin or granulocyte-macrophage colony-stimulating factor; cited from earlier work

Q: What does the source list for `O=C1NC2=Nc3ccc(Cl)c(Cl)c3CN2C1O` (stereo not shown) [3-hydroxyanagrelide]?
A: typical half-life [1]: 2.5 h; potency as PDE III inhibitor relative to anagrelide [2]: over 40 fold; potency of inhibition of megakaryocytopoiesis relative to parent drug ([3]; relative to anagrelide): no more potent than the parent drug; exposure in vivo relative to parent drug [4]: 2-3 fold

Q: With `Cc1[nH]c(=O)c(C#N)cc1-c1ccncc1` [milrinone] as the molecule, how does the IC50 [5] read?
A: 170 to 350 nM

Q: What does the source list for `O=C1CN2Cc3c(ccc(Cl)c3Cl)N=C2N1` [Anagrelide, 6,7-dichloro-1,5-dihydroimidazo[2,1-b]-quinazolin-2(3H)-one]?
A: first pass effect [1]: > 50%; IC50 ([3]; TPO-induced, dose-dependent, read-out: estimated IC50, inhibition of TPO-induced megakaryocytopoiesis): ~26 nM; time to complete response (platelet count ≦600×10^9/L) [6]: 4 to 12 weeks; IC50 [5]: ~29 nM; effect on erythroid or myelomonocytic differentiation [7]: does not affect
